Assay results as given in US20240092758A1, “IMIDAZOLO INDAZOLE COMPOUNDS AS JAK INHIBITORS” (Theravance Biopharma R&D IP, LLC, priority 2021, published 2024).

Experiment: Pharmacokinetics in plasma and lung in mouse after oral aspiration administration
Format: in vivo
Details: male CD1 mice; for Lung Tissue AUC(0-24) / AUC(0-t): 0.2 mg/mL, two 25 μL increments; for Lung Tissue:Plasma AUC ratio: lung AUC to plasma AUC; for AUC(0-t): mouse, inhaled or intranasal, 0.01 mg/mouse, plasma, read-out: Plasma AUC(0-24)
In short: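 Male CD1 mice given 0.2 mg/mL compound in 20% propylene glycol/pH 4 citrate buffer, two 25 μL increments by oral aspiration into the trachea under isoflurane. Plasma and lung homogenate sampled 0.167–24 hr and measured by LC-MS/MS. Non-compartmental analysis gave AUC(0-inf); lung-to-plasma ratio from lung (μg*hr/g) over plasma (μg*hr/mL) AUC.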

Row | SMILES | Lung Tissue AUC(0-24) | Lung Tissue:Plasma AUC ratio | AUC(0-t) [ng·h/mL]
1 | CCc1cc(O)ccc1-c1ccc2c(-c3nc(C4=CCNC4)c[nH]3)n[nH]c2c1F [Compound 1, 4-(3-(4-(2,5-dihydro-1H-pyrrol-3-yl)-1H-imidazol-2-yl)-7-fluoro-1H-indazol-6-yl)-3-ethylphenol] | B (B denotes a value between 50 and 100) | C (C denotes a ratio between 100 and 200) | 500 to 1000
2 | CCc1cc(O)ccc1-c1ccc2c(-c3nc(C4=CCNCC4)c[nH]3)n[nH]c2c1F [Compound 2, 3-ethyl-4-(7-fluoro-3-(4-(1,2,3,6-tetrahydropyridin-4-yl)-1H-imidazol-2-yl)-1H-indazol-6-yl)phenol] | B (B denotes a value between 50 and 100) | C (C denotes a ratio between 100 and 200) | 500 to 1000
3 | CCc1cc(O)ccc1-c1ccc2c(-c3nc(C4=CCNCC4)c[nH]3)n[nH]c2c1 [Compound 3, 3-ethyl-4-(3-(4-(1,2,3,6-tetrahydropyridin-4-yl)-1H-imidazol-2-yl)-1H-indazol-6-yl)phenol] | A (For the Lung Tissue AUC(0-24), A denotes a value between 100 and 200) | C (C denotes a ratio between 100 and 200) | 500 to 1000
